# Assay results published in patent US20110166123A1, “NOVEL COMPOSITIONS AND METHODS OF USE” (priority 2008, published 2011).
# Test system: human immunodeficiency virus type 1 (HIV-1)
# Test: microbe, parasite or virus in culture
# Format: cell-based
# Details: Human immunodeficiency virus 1, HeLa, 48 h, HIV-1 luciferase reporter, HeLa cells, 48 hours after infection
row,SMILES,EC50 [nM]
1,"CC(C)[C@@H](CO)n1cc(C(=O)O)c(=O)c2cc(Cc3cccc(Cl)c3)ncc21 [Example 5C, 6-(3-Chloro-benzyl)-1-((S)-1-hydroxymethyl-2-methyl-propyl)-4-oxo-1,4-dihydro-[1,7]naphthyridine-3-carboxylic acid]",> 100
2,"COc1nc(Cc2cccc(Cl)c2F)cc2c(=O)c(C(=O)O)cn([C@H](CO)C(C)C)c12 [Example 5D, 6-(3-Chloro-2-fluoro-benzyl)-1-((S)-1-hydroxymethyl-2-methyl-propyl)-8-methoxy-4-oxo-1,4-dihydro-1,7-naphthyridine-3-carboxylic acid]",> 100
3,"CC(C)[C@H]1COc2nc(Cc3cccc(Cl)c3F)cc3c(=O)c(C(=O)O)cn1c23 [Example 5E, (S)-8-(3-chloro-2-fluoro-benzyl)-3-isopropyl-6-oxo-2,3-dihydro-6H-1-oxa-3a,9-diaza-phenalene-5-carboxylic acid]",> 100
4,CC[C@@H](CO)n1cc(C(=O)O)c(=O)c2cc(Cc3cccc(Cl)c3F)ncc21 [Example 5G],> 100
5,CCC(C)C(CO)n1cc(C(=O)O)c(=O)c2cc(Cc3cccc(Cl)c3F)ncc21 (stereo not drawn) [Example 5H],10 to 100
6,CCC[C@@H](CO)n1cc(C(=O)O)c(=O)c2cc(Cc3cccc(Cl)c3F)ncc21 [Example 5I],> 100
7,CCCC[C@@H](CO)n1cc(C(=O)O)c(=O)c2cc(Cc3cccc(Cl)c3F)ncc21 [Example 5J],> 100
8,C[C@H](CO)n1cc(C(=O)O)c(=O)c2cc(Cc3cccc(Cl)c3F)ncc21 [Example 5K],> 100
9,O=C(O)c1cn(C(CO)CO)c2cnc(Cc3cccc(Cl)c3F)cc2c1=O [Example 5L],> 100
10,O=C(O)c1cn([C@H](CO)C2CCCCC2)c2cnc(Cc3cccc(Cl)c3F)cc2c1=O [Example 5M],10 to 100
11,O=C(O)c1cn([C@H](CO)CC2CCCCC2)c2cnc(Cc3cccc(Cl)c3F)cc2c1=O [Example 5N],> 100
12,O=C(O)c1cn(C[C@H](O)c2ccccc2)c2cnc(Cc3cccc(Cl)c3F)cc2c1=O [Example 5O],> 100
13,O=C(O)c1cn([C@@H](CO)c2ccccc2)c2cnc(Cc3cccc(Cl)c3F)cc2c1=O [Example 5P],> 100
14,CC(C)[C@@H](CO)n1cc(C(=O)O)c(=O)c2cc(Cc3ccc(Cl)c(Cl)c3)ncc21 [Example 5Q],10 to 100
15,"CC(C)[C@@H](CO)n1cc(C(=O)O)c(=O)c2cc(Cc3cccc(Cl)c3F)nnc21 [Example 6, 3-(3-chloro-2-fluorobenzyl)-8-(1-hydroxy-3-methylbutan-2-yl)-5-oxo-5,8-dihydropyrido[2,3-c]pyridazine-6-carboxylic acid]",> 100
16,CCCn1cc(C(=O)OC(=O)c2ccccc2)c(=O)c2c(N)nc(SC)nc21 [Example 7A],> 100
17,CCCn1cc(C(=O)O)c(=O)c2c(N)nc(SC)nc21 [Example 7B],> 100
18,CCCn1cc(C(=O)NN)c(=O)c2c(N)nc(SC)nc21 [Example 7C],> 100
19,CCCn1cc(C(=O)OC(=O)c2ccccc2)c(=O)c2c(NC(C)=O)nc(SC)nc21 [Example 7D],> 100
20,"CC(C)[C@@H](CO)n1cc(C(=O)O)c(=O)c2nc(Cc3cccc(Cl)c3F)ccc21 [Example 8A, 6-(3-Chloro-2-fluoro-benzyl)-1-((S)-1-hydroxymethyl-2-methyl-propyl)-4-oxo-1,4-dihydro-[1,5]naphthyridine-3-carboxylic acid]",> 100
21,"CC(C)[C@@H](CO)n1cc(C(=O)O)c(=O)c2nc(Cc3ccc(F)c(F)c3)ccc21 [Example 8B, 6-(3,4-Difluoro-benzyl)-1-((S)-1-hydroxymethyl-2-methyl-propyl)-4-oxo-1,4-dihydro-[1.5]naphthyridine-3-carboxylic acid]",> 100
22,"CC(C)[C@@H](CO)n1cc(C(=O)O)c(=O)c2nc(Cc3cccc(Cl)c3)ccc21 [Example 8C, 6-(3-Chloro-benzyl)-1-((S)-1-hydroxymethyl-2-methyl-propyl)-4-oxo-1,4-dihydro-[1,5]naphthyridine-3-carboxylic acid]",> 100
23,"COc1cc2c(nc1Cc1cccc(Cl)c1F)c(=O)c(C(=O)O)cn2[C@H](CO)C(C)C [Example 8D, 6-(3-Chloro-2-fluoro-benzyl)-1-((S)-1-hydroxymethyl-2-methyl-propyl)-7-methoxy-4-oxo-1,4-dihydro-[1.5]naphthyridine-3-carboxylic acid]",> 100
24,"O=C(O)c1c[nH]c2cnc(Cc3cccc(Cl)c3)nc2c1=O [Example 10A, 2-(3-chlorobenzyl)-8-oxo-5,8-dihydropyrido[3,2-d]pyrimidine-7-carboxylic acid]",> 100
25,"CC(C)[C@@H](CO)n1cc(C(=O)O)c(=O)c2nc(Cc3cccc(Cl)c3F)c(O)nc21 [Example 11A, (S)-2-(3-chloro-2-fluorobenzyl)-3-hydroxy-5-(1-hydroxy-3-methylbutan-2-yl)-8-oxo-5,8-dihydropyrido[2,3-b]pyrazine-7-carboxylic acid]",> 100
26,"COc1nc2c(cc1CNc1c(F)cc(F)cc1F)c(=O)c(C(=O)O)cn2[C@H](CO)C(C)C [Example 12A, (S)-1-(1-hydroxy-3-methylbutan-2-yl)-7-methoxy-4-oxo-6-((2,4,6-trifluorophenylamino)methyl)-1,4-dihydro-1,8-naphthyridine-3-carboxylic acid]",> 100
27,COc1nc2c(cc1CNc1ccc(F)cc1F)c(=O)c(C(=O)O)cn2[C@H](CO)C(C)C [Example 12B],> 100

row,SMILES,EC50 [nM]
1,COc1nc2c(cc1CNc1ccc(F)cc1)c(=O)c(C(=O)O)cn2[C@H](CO)C(C)C [Example 12D],> 100
2,COc1nc2c(cc1CNc1cccc3c1CCCC3)c(=O)c(C(=O)O)cn2[C@H](CO)C(C)C [Example 12E],> 100
3,COc1nc2c(cc1CNC1CCCc3ccccc31)c(=O)c(C(=O)O)cn2[C@H](CO)C(C)C (stereo partly drawn) [Example 12F],> 100
4,COc1nc2c(cc1CNCc1c(F)cc(F)cc1F)c(=O)c(C(=O)O)cn2[C@H](CO)C(C)C [Example 12G],> 100
5,COc1nc2c(cc1CN1CCc3ccccc3C1)c(=O)c(C(=O)O)cn2[C@H](CO)C(C)C [Example 12H],> 100
6,"COc1cc2c(cc1CNc1ccc(F)cc1)c(=O)c(C(=O)O)cn2[C@H](CO)C(C)C [Example 13A, (S)-6-((4-fluorophenylamino)methyl)-1-(1-hydroxy-3-methylbutan-2-yl)-7-methoxy-4-oxo-1,4-dihydroquinoline-3-carboxylic acid]",> 100
7,"COc1nc2c(cc1COc1c(F)cc(F)cc1F)c(=O)c(C(=O)O)cn2[C@H](CO)C(C)C [Example 14A, (S)-1-(1-hydroxy-3-methylbutan-2-yl)-7-methoxy-4-oxo-6-((2,4,6-trifluorophenoxy)methyl)-1,4-dihydro-1,8-naphthyridine-3-carboxylic acid]",> 100
8,COc1nc2c(cc1COc1ccc(F)cc1F)c(=O)c(C(=O)O)cn2[C@H](CO)C(C)C [Example 14B],> 100
9,"COc1cc2c(cc1COc1ccc(F)cc1)c(=O)c(C(=O)O)cn2[C@H](CO)C(C)C [Example 15A, (S)-6-((4-fluorophenoxy)methyl)-1-(1-hydroxy-3-methylbutan-2-yl)-7-methoxy-4-oxo-1,4-dihydroquinoline-3-carboxylic acid]",> 100
10,"CC(C)[C@@H](CO)n1cc(C(=O)O)c(=O)c2cc(Nc3cccc(Cl)c3F)ncc21 [Example 16A, (S)-6-(3-chloro-2-fluorophenylamino)-1-(1-hydroxy-3-methylbutan-2-yl)-4-oxo-1,4-dihydro-1,7-naphthyridine-3-carboxylic acid]",> 100
11,COc1nc2c(cc1-c1ccc(F)cc1)c(=O)c(C(=O)O)cn2[C@H](CO)C(C)C [Example 17A],> 100
12,COc1nc2c(cc1-c1ccc(Cl)c(F)c1)c(=O)c(C(=O)O)cn2[C@H](CO)C(C)C [Example 17B],> 100
13,COc1nc2c(cc1-c1cccc(Cl)c1F)c(=O)c(C(=O)O)cn2[C@H](CO)C(C)C [Example 17C],> 100
14,COc1nc2c(cc1-c1ccc(F)c(Cl)c1)c(=O)c(C(=O)O)cn2[C@H](CO)C(C)C [Example 17D],> 100
15,COc1nc2c(cc1-c1ccc(F)cc1F)c(=O)c(C(=O)O)cn2[C@H](CO)C(C)C [Example 17E],> 100
16,COc1nc2c(cc1-c1cccc(C#N)c1)c(=O)c(C(=O)O)cn2[C@H](CO)C(C)C [Example 17F],> 100
17,COc1nc2c(cc1-c1ccncc1)c(=O)c(C(=O)O)cn2[C@H](CO)C(C)C [Example 17G],> 100
18,COc1ccc(-c2cc3c(=O)c(C(=O)O)cn([C@H](CO)C(C)C)c3nc2OC)cn1 [Example 17H],> 100
19,COc1nc2c(cc1-c1cccc3ccccc13)c(=O)c(C(=O)O)cn2[C@H](CO)C(C)C [Example 17I],> 100
20,COc1nc2c(cc1-c1ccc(OCc3ccccc3)c(F)c1)c(=O)c(C(=O)O)cn2[C@H](CO)C(C)C [Example 17J],> 100
21,COc1nc2c(cc1-c1ccccc1OCc1ccccc1)c(=O)c(C(=O)O)cn2[C@H](CO)C(C)C [Example 17K],> 100
22,COc1nc2c(cc1-c1cccc(OCc3ccccc3)c1)c(=O)c(C(=O)O)cn2[C@H](CO)C(C)C [Example 17L],> 100
23,COc1nc2c(cc1N1CCc3cc(F)ccc3C1)c(=O)c(C(=O)O)cn2[C@H](CO)C(C)C [Example 17M],> 100
24,COc1nc2c(cc1N1CCc3ccc(F)cc3C1)c(=O)c(C(=O)O)cn2[C@H](CO)C(C)C [Example 17N],> 100
25,COc1nc2c(cc1N1CCCc3ccccc31)c(=O)c(C(=O)O)cn2[C@H](CO)C(C)C [Example 17O],> 100
26,"COc1cc2c(cc1CCc1ccc(F)cc1F)c(=O)c(C(=O)O)cn2[C@H](CO)C(C)(C)C [Example 18A, 6-[2-(2,4-Difluoro-phenyl)-ethyl]-1-((S)-1-hydroxymethyl-2,2-dimethyl-propyl)-7-methoxy-4-oxo-1,4-dihydro-quinoline-3-carboxylic acid]",> 100

# Same assay, conditions: Human immunodeficiency virus 1, HeLa, HIV-1 luciferase reporter, HeLa cells
row,SMILES,EC50 [nM]
1,"COc1nc2c(cc1COc1c(F)cc(F)cc1F)c(=O)c(C(=O)O)cn2[C@H](CO)C(C)C [Example 14A, (S)-1-(1-hydroxy-3-methylbutan-2-yl)-7-methoxy-4-oxo-6-((2,4,6-trifluorophenoxy)methyl)-1,4-dihydro-1,8-naphthyridine-3-carboxylic acid]",> 2500
2,COc1nc2c(cc1COc1ccc(F)cc1F)c(=O)c(C(=O)O)cn2[C@H](CO)C(C)C [Example 14B],> 2500

# Same assay, conditions: Human immunodeficiency virus 1, read-out: Rank, rank of EC50, HIV-1 luciferase reporter
row,SMILES,EC50 [nM]
1,"COc1nc2c(cc1COc1c(F)cc(F)cc1F)c(=O)c(C(=O)O)cn2[C@H](CO)C(C)C [Example 14A, (S)-1-(1-hydroxy-3-methylbutan-2-yl)-7-methoxy-4-oxo-6-((2,4,6-trifluorophenoxy)methyl)-1,4-dihydro-1,8-naphthyridine-3-carboxylic acid]",> 100
2,COc1nc2c(cc1COc1ccc(F)cc1F)c(=O)c(C(=O)O)cn2[C@H](CO)C(C)C [Example 14B],> 100
